Measured values from BindingDB's records for doi:10.1016/j.bmcl.2007.01.039 (Merck Research Laboratories, 2007).

Target: Dipeptidyl peptidase 2 (Homo sapiens, UniProt Q9UHL4)
Assay: Dipeptidyl Peptidase Inhibition Assay

Row | Structure (SMILES) | IC50 [µM]
1 | C[C@@H]1C(=O)NCCCN1C(=O)C[C@H](N)Cc1cc(F)ccc1F [(3R)-4-[(3R)-3-amino-4-(2,5-difluorophenyl)butanoyl]-3-methyl-1,4-diazepan-2-one] | > 100
2 | C[C@@H]1C(=O)N[C@@H](C(F)(F)F)CCN1C(=O)C[C@H](N)Cc1cc(F)c(F)cc1F [(3R,7R)-4-[(3R)-3-amino-4-(2,4,5-trifluorophenyl)butanoyl]-3-methyl-7-(trifluoromethyl)-1,4-diazepan-2-one] | > 100
